Assays:
[1] = system: HCT116 MTAP-deleted cells; test: Cell viability assay (CellTiter-Glo, 7 days), HCT116 MTAP-deleted; conditions: Homo sapiens, HCT-116, 168 h
[2] = system: SDMA signal (PRMT5 inhibition) in HCT116 MTAP-deleted cells; test: Symmetric di-methyl arginine image-based high content screen assay (SDMA assay), HCT116 MTAP-deleted; format: cell-based; conditions: SDMA assay; for EC50: Homo sapiens, HCT-116, 72 h, 3 days of treatment, cell line not given, taken as HCT116 MTAP-deleted, read-out: EC50 (SDMA assay); for EC50 selectivity (SDMA assay): taken as HCT116 WT versus MTAP-deleted
Outline: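 Read-out: per-cell mean SDMA immunofluorescence (Alexa Fluor 488 secondary), cells segmented by DAPI on a high-content imager. Compound exposure in HCT116 MTAP-deleted cells lasted until fixation on Day 3; overnight 4° C primary anti-SDMA antibody staining.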

| EC50 [2] [nM] | EC50 selectivity (SDMA assay) [2] | Structure (SMILES) | CC50 [1] [nM] |
| --- | --- | --- | --- |
| 1 to 5 | 205 | CC(=O)N(C)N(Cc1ccc(C2CC2)nc1F)C(=O)c1ccc2nc(N)c3cnn(C)c3c2c1 [Example 228, N′-acetyl-4-amino-N-((6-cyclopropyl-2-fluoropyridin-3-yl)methyl)-N′,1-dimethyl-1H-pyrazolo[4,3-c]quinoline-8-carbohydrazide] | < 100 |
| 1 to 5 | 43 | CC(=O)N(C)N(Cc1ccc(-c2ccc(C(F)(F)F)nc2)cc1F)C(=O)c1ccc2nc(N)c3cnn(C)c3c2c1 [Example 229, N′-acetyl-4-amino-N-(2-fluoro-4-(6-(trifluoromethyl)pyridin-3-yl)benzyl)-N′,1-dimethyl-1H-pyrazolo[4,3-c]quinoline-8-carbohydrazide] | < 100 |
| 1 to 5 | 298 | CC(=O)N(C)N(Cc1ccc(C2CC2)nc1)C(=O)c1ccc2nc(N)c3cnn(C)c3c2c1 [Example 232, N′-acetyl-4-amino-N-((6-cyclopropylpyridin-3-yl)methyl)-N′,1-dimethyl-1H-pyrazolo[4,3-c]quinoline-8-carbohydrazide] | < 100 |
| 1 to 5 | 259 | CN(C(=O)C1CC1)N(Cc1ccc(F)cc1)C(=O)c1ccc2nc(N)c3cnn(C)c3c2c1 [Example 235, 4-amino-N′-(cyclopropanecarbonyl)-N-(4-fluorobenzyl)-N′,1-dimethyl-1H-pyrazolo[4,3-c]quinoline-8-carbohydrazide] | < 100 |
| 1 to 5 | 288 | CN(C(=O)C12CC(C1)C2)N(Cc1ccc(C(F)(F)F)nn1)C(=O)c1cc2c(cc1F)nc(N)c1cnn(C)c12 [Example 246, 4-amino-N′-(bicyclo[1.1.1]pentane-1-carbonyl)-7-fluoro-N′, 1-dimethyl-N-((6-(trifluoromethyl)pyridazin-3-yl)methyl)-1H-pyrazolo[4,3-c]quinoline-8-carbohydrazide] | 100 to 1000 |
| 1 to 5 | 536 | CN(C(=O)C12CC(C1)C2)N(Cc1ccc(C(F)(F)F)nn1)C(=O)c1ccc2nc(N)c3cnn(C)c3c2c1 [Example 248, 4-amino-N′-(bicyclo[1.1.1]pentane-1-carbonyl)-N′,1-dimethyl-N-((6-(trifluoromethyl)pyridazin-3-yl)methyl)-1H-pyrazolo[4,3-c]quinoline-8-carbohydrazide] | 100 to 1000 |
| < 1 | 153 | CC(=O)N(C)N(Cc1ccc(-c2csc(C(F)(F)F)n2)cc1F)C(=O)c1ccc2nc(N)c3cnn(C)c3c2c1 [Example 250, N′-acetyl-4-amino-N-(2-fluoro-4-(2-(trifluoromethyl)thiazol-4-yl)benzyl)-N′,1-dimethyl-1H-pyrazolo[4,3-c]quinoline-8-carbohydrazide] | < 100 |
| < 1 | 28 | COC(=O)N(C)N(Cc1ccc(C(F)(F)F)cn1)C(=O)c1ccc2nc(N)c3cnn(C)c3c2c1 [Example 253, methyl 2-(4-amino-1-methyl-1H-pyrazolo[4,3-c]quinoline-8-carbonyl)-1-methyl-2-((5-(trifluoromethyl)pyridin-2-yl)methyl)hydrazine-1-carboxylate] | < 100 |
| < 1 | 266 | [2H]C([2H])(c1ccc(C(F)(F)F)cn1)N(C(=O)c1ccc2nc(N)c3cnn(C([2H])([2H])[2H])c3c2c1)N(C)C(=O)C1CC1 [Example 254, 4-amino-N′-(cyclopropanecarbonyl)-N′-methyl-1-(methyl-d3)-N-((5-(trifluoromethyl)pyridin-2-yl)methyl-d2)-1H-pyrazolo[4,3-c]quinoline-8-carbohydrazide] | < 100 |
| < 1 | 51 | CN(C(=O)[C@H]1C[C@@H]1F)N(Cc1ccc(C(F)(F)F)cn1)C(=O)c1ccc2nc(N)c3cnn(C)c3c2c1 [Example 255, 4-amino-N′-((1R,2S)-2-fluorocyclopropane-1-carbonyl)-N′,1-dimethyl-N-((5-(trifluoromethyl)pyridin-2-yl)methyl)-1H-pyrazolo[4,3-c]quinoline-8-carbohydrazide] | < 100 |
| < 1 | 130 | [2H]C([2H])(c1ccc(C(F)(F)F)cn1)N(C(=O)c1ccc2nc(N)c3cnn(C)c3c2c1)N(C)C(=O)C1CC1 [Example 256, 4-amino-N′-(cyclopropanecarbonyl)-N′,1-dimethyl-N-((5-(trifluoromethyl)pyridin-2-yl)methyl-d2)-1H-pyrazolo[4,3-c]quinoline-8-carbohydrazide] | < 100 |
| < 1 | 213 | [2H]C([2H])([2H])n1ncc2c(N)nc3ccc(C(=O)N(Cc4ccc(C(F)(F)F)cn4)N(C)C(=O)C4CC4)cc3c21 [Example 257, 4-amino-N′-(cyclopropanecarbonyl)-N′-methyl-1-(methyl-d3)-N-((5-(trifluoromethyl)pyridin-2-yl)methyl)-1H-pyrazolo[4,3-c]quinoline-8-carbohydrazide] | < 100 |

Further lines, the molecule ahead of its results:

| Structure (SMILES) | EC50 [2] [nM] | EC50 selectivity (SDMA assay) [2] | CC50 [1] [nM] |
| --- | --- | --- | --- |
| CN(C(=O)C1CC1)N(Cc1ccc(-c2cnn(C(F)(F)F)c2)cc1F)C(=O)c1ccc2nc(N)c3cnn(C)c3c2c1 [Example 230, 4-amino-N′-(cyclopropanecarbonyl)-N-(2-fluoro-4-(1-(trifluoromethyl)-1H-pyrazol-4-yl)benzyl)-N′,1-dimethyl-1H-pyrazolo[4,3-c]quinoline-8-carbohydrazide] | < 1 | 228 | < 100 |
| CC(=O)N(C)N(Cc1ccc(-c2ccc(C(F)(F)F)cc2)cc1F)C(=O)c1ccc2nc(N)c3cnn(C)c3c2c1 [Example 231, N′-acetyl-4-amino-N-((3-fluoro-4′-(trifluoromethyl)-[1,1′-biphenyl]-4-yl)methyl)-N′,1-dimethyl-1H-pyrazolo[4,3-c]quinoline-8-carbohydrazide] | 1 to 5 | 18 | < 100 |
| CC(=O)N(C)N(Cc1ccc(-c2cnsc2)cc1F)C(=O)c1ccc2nc(N)c3cnn(C)c3c2c1 [Example 233, N′-acetyl-4-amino-N-(2-fluoro-4-(isothiazol-4-yl)benzyl)-N′,1-dimethyl-1H-pyrazolo[4,3-c]quinoline-8-carbohydrazide] | < 1 | 89 | < 100 |
| CC(=O)N(C)N(Cc1ccc(-c2ccns2)cc1F)C(=O)c1ccc2nc(N)c3cnn(C)c3c2c1 [Example 234, N′-acetyl-4-amino-N-(2-fluoro-4-(isothiazol-5-yl)benzyl)-N′,1-dimethyl-1H-pyrazolo[4,3-c]quinoline-8-carbohydrazide] | < 1 | 39 | < 100 |
| CC(=O)N(C)N(Cc1ccc(-c2cnn(C3CC3)c2)cc1F)C(=O)c1ccc2nc(N)c3cnn(C)c3c2c1 [Example 236, N′-acetyl-4-amino-N-(4-(1-cyclopropyl-1H-pyrazol-4-yl)-2-fluorobenzyl)-N′,1-dimethyl-1H-pyrazolo[4,3-c]quinoline-8-carbohydrazide] | < 1 | 203 | < 100 |
| CN(C(=O)C1CC1)N(Cc1ccc(-c2cnn(C(F)F)c2)cc1F)C(=O)c1ccc2nc(N)c3cnn(C)c3c2c1 [Example 238, 4-amino-N′-(cyclopropanecarbonyl)-N-(4-(1-(difluoromethyl)-1H-pyrazol-4-yl)-2-fluorobenzyl)-N′,1-dimethyl-1H-pyrazolo[4,3-c]quinoline-8-carbohydrazide] | < 1 | 77 | < 100 |
| CN(C(=O)C1CC1)N(Cc1ccc(-c2cnsc2)cc1F)C(=O)c1ccc2nc(N)c3cnn(C)c3c2c1 [Example 240, 4-amino-N′-(cyclopropanecarbonyl)-N-(2-fluoro-4-(isothiazol-4-yl)benzyl)-N′,1-dimethyl-1H-pyrazolo[4,3-c]quinoline-8-carbohydrazide] | < 1 | 95 | < 100 |
| CC(=O)N(C)N(Cc1ccc(-c2cnn(C(F)F)c2)cc1F)C(=O)c1ccc2nc(N)c3cnn(C)c3c2c1 [Example 242, N′-acetyl-4-amino-N-(4-(1-(difluoromethyl)-1H-pyrazol-4-yl)-2-fluorobenzyl)-N′,1-dimethyl-1H-pyrazolo[4,3-c]quinoline-8-carbohydrazide] | < 1 | 77 | < 100 |
| CC(=O)N(C)N(Cc1ccc(-c2ccnn2C)cc1F)C(=O)c1ccc2nc(N)c3cnn(C)c3c2c1 [Example 243, N′-acetyl-4-amino-N-(2-fluoro-4-(1-methyl-1H-pyrazol-5-yl)benzyl)-N′,1-dimethyl-1H-pyrazolo[4,3-c]quinoline-8-carbohydrazide] | < 1 | 171 | < 100 |
| CC(=O)N(C)N(Cc1ccc(-c2ccnn2C(F)(F)F)cc1F)C(=O)c1ccc2nc(N)c3cnn(C)c3c2c1 [Example 244, N′-acetyl-4-amino-N-(2-fluoro-4-(1-(trifluoromethyl)-1H-pyrazol-5-yl)benzyl)-N′,1-dimethyl-1H-pyrazolo[4,3-c]quinoline-8-carbohydrazide] | < 1 | 109 | < 100 |
| CC(=O)N(C)N(Cc1ccc(-c2ccn(C(F)(F)F)n2)cc1F)C(=O)c1ccc2nc(N)c3cnn(C)c3c2c1 [Example 249, N′-acetyl-4-amino-N-(2-fluoro-4-(1-(trifluoromethyl)-1H-pyrazol-3-yl)benzyl)-N′,1-dimethyl-1H-pyrazolo[4,3-c]quinoline-8-carbohydrazide] | < 1 | 193 | < 100 |
